Measurements: patent US6809084B1, “Compositions containing polysaccharides from phellinus linteus and methods for treating diabetes mellitus using same” (Korea Research Institute of Bioscience and Biotechnology, priority 2000, dated 2004)

Test system: ICR mouse
Assay: Streptozotocin-induced diabetes in ICR mice
Assay type: in vivo
Conditions: 60 mg/kg three times i.p., normal ICR mouse 200 mg/dl
Experimental: FIG. 7 illustrates the effect of PL on experimental group with streptozotocin-induced diabetes. Blood glucose values were measured with Accutrend sensor system (Boehringer Mannheim, Germany).
Streptozotocin, which can induce Insulin-dependent diabetes mellitus, destroys selectively pancreatic beta cells, and diabetes mellitus induced :by streptozotocin is similar with diabetes naturally occurring in NOD mice. […] ICR mouse received 60 mg/kg of streptozotocin three times with intraperitoneal injection. Streptozotocin was used in solution of citrate buffer (pH 4.2, 4° C.). The blood glucose level of ICR mouse treated with streptozotocin was 450 mg/dl, whereas that of normal ICR mouse without streptozotocin was 200 mg/dl (FIG. 7).

## CN(N=O)C(=O)N[C@H]1C(O)O[C@H](CO)[C@@H](O)[C@@H]1O (mixture of isomers) [streptozotocin]
  blood glucose level: 450 mg/dL
